Measured values published in patent US20050113284A1, “Drug for regenerating tissue and vessel and method therefor” (priority 2001, published 2005).
Blank lines part the entries; values can stand above or below the compound they belong to.

How the values were obtained:
MERMUC = MERMUC protein phosphorylation in [32P]-labelled MERMUC/293 cells; type: cell-based, human; settings: for phosphorylation of MERMUC upon growth factor stimulation: MERMUC overexpressing cells cultured without Dox, HGF 20ng/ml, 5 min
Experimental: After labeling the Tet-Off/MERMUC expressing recombinant cells (MERMUC/293 cells) produced above with (^32P] orthophosphate, the cells were stimulated with human recombinant HGF (20ng/ml; 5 min). Next, cell lysate was prepared by lysing cells according to conventional method. Anti-human MERMUC polyclonal antibody prepared as above (Example 2) was added to and reacted with the obtained cell lysate, bound to protein-G Sepharose, and then MERMUC protein and anti-MERMUC polyclonal antibody complex was precipitated by centrifugation.
The precipitate was extracted with 1% SDS and similar immunoprecipitation procedure was performed to reduce the background. The sample prepared by this procedure was separated by SDS-PAGE and analyzed by autoradiography.
Furthermore, MERMUC expression in the above mentioned recombinant cells was confirmed to be constant regardless of the presence or absence of HGF by Western blotting according to conventional method using anti-human MERMUC polyclonal antibody.
The following experiments were conducted similarly as described above: • 1) epidermal growth factor (EGF) was used in place of HGF; • 2) MERMUC expressing cells were treated with HGF signaling suppressor, PI3 kinase inhibitor (LY294002; 10 μM; CALBIOCHEM), before HGF stimulation; • 3) MERMUC expressing cells were treated with HGF signaling suppressor, MEK 1/2 inhibitor (U0126; 10 μM; CALBIOCHEM), before HGF stimulation; • 4) MERMUC expressing cells were treated with PI3 kinase inhibitor (LY294002; 10 μM) before EGF stimulation; and • 5) MERMUC expressing cells were treated with MEK 1/2 inhibitor (U0126; 10 μM) before EGF stimulation.

[1] = molecular target: T1, HGF receptor c-Met β chain (Homo sapiens, UniProt P08581); assay: Yeast two-hybrid binding of MERMUC bait proteins to c-Met prey (C-terminal 91 amino acids); settings: prey clone No. 3-309 (C-terminal 91 amino acids of human c-Met)
T1 construct: expressed in transfected cells; host or cells: yeast AH109 strain (library prey plasmid, human kidney cDNA library, CLONTECH)
T1 sequence (P08581 1300-1390): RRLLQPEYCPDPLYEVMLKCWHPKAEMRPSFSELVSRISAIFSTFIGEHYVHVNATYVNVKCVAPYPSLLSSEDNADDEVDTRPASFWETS
Experimental: The present examination was performed using the previously reported yeast two-hybrid system (references are described above) according to conventional method and the experimental protocols provided with the reagents. […]
The binding ability of MERMUC bait protein derived from each of the bait vectors to the HGF receptor c-Met β chain was analyzed by the yeast two-hybrid system described above. […]
Each of the bait vectors was cointroduced into yeast AH109 strain with human HGF receptor c-Met prey vector (comprising DNA encoding the C-terminal 91 amino acids of the c-Met; Example 1). The binding ability of each of the bait proteins (randomly selected 10 amino acids of the human MERMUC C-terminal region) to the C-terminal region of human c-Met β chain was analyzed by the yeast two-hybrid system similar to the aforementioned Example.

[2] = test system: C-terminal region of human MERMUC (bait-2, bait-3); assay: Yeast two hybrid screening of human kidney cDNA library with MERMUC baits; type: binding; settings: bait-2 = 123 amino acid portion of the C-terminus of human MERMUC
Chain of C-terminal region of human MERMUC (bait-2, bait-3) (Q8N307 587-709): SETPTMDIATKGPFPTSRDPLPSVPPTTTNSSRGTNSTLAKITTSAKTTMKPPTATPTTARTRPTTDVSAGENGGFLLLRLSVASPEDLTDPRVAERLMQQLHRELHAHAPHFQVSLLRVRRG
Experimental: Specifically, yeast two hybrid system (Proc. Natl. Acad. Sci. USA., 1991, Vol.88, p.9578-9582) was performed to screen a human kidney cDNA library using cDNA corresponding to the C-terminal region of the human MERMUC as the bait (that is, fishing bait).
Two kinds of bait (bait-2 and bait-3) were designed using each of Ex.-2 and Ex.-3 as the core. Bait-2 corresponds to a 123 amino acid portion of the C-terminus (bait-2) and bait-3 corresponds to the 65 C-terminal amino acids (bait-3).
Each bait vector was obtained by inserting each DNA fragment obtained by digesting each of the PCR products with the restriction enzymes EcoRI and SalI into the EcoRI/SalI site of pGBKT7 vector (leucine biosynthesis gene as a marker; CLONTECH). In yeast, the gene within the vector is produced as a fusion protein ([fusion protein A]) with the DNA binding region (GAL4-DB) of the yeast transcription factor GAL4.
On the other hand, each cDNA of the human kidney derived cDNA library (CLONTECH) that is used for the screening with the bait vector is inserted in pADK vector (tryptophan biosynthesis gene as a marker). Therefore, proteins produced through the expression of each of these cDNAs in yeast are produced as a fusion protein ([fusion protein B]) with the GAL4 transcriptional activation region (GAL4-AD). […]

liver = assay: HGF-dependent liver enlargement in MERMUC-Tg and non-Tg mice; type: in vivo; settings: human HGF expression plasmid 28 μg/mouse into tail vein, two days
Description: It has been reported that HGF is transiently overexpressed in vivo by the injection of HGF expression plasmid DNA into the tail vein of normal mice, causing liver enlargement due to the enhancement of hepatocyte proliferation (Hepatology, 2001, Vol. 33, p848-859). Therefore, to validate the down-regulation activity of MERMUC on HGF receptor mediated signaling, the method in the above mentioned report was applied to MERMUC overexpressing transgenic mice (MERMUC-Tg; 7 weeks old; male; 23-33 g) produced in the previous Example, and the effect due to the expression of MERMUC on liver enlargement induced by HGF overexpression was examined. Human HGF expression plasmid (human HGF-cDNA in pcDNA3; Invitrogen) or plasmid pcDNA3 (mock) was injected into the tail vein of each of MERMUC-Tg mouse and littermate non-Tg mouse at a concentration of 28 μg/mouse (2.3 ml saline) within 5 to 10 seconds. The HGF level in serum of each of the mice was measured using a human HGF ELISA kit (Genzyme Techne) two days after the plasmid injection. The level of HGF production due to the administered plasmid in each animal was evaluated together with the changes in liver weight upon laparotomy.

hepatocytes = assay: Growth factor dependent proliferation of primary hepatocytes of MERMUC-Tg and non-Tg mice; type: cell-based, mouse; settings: 24 hr
Experimental: Primary cell culture of hepatocytes from liver cells obtained from the liver of each of the MERMUC-Tg mice (8 weeks old, 4 mice) and non-Tg mice (8 weeks old, 4 mice) was prepared by collagenase treatment according to the method of Berry and Friend, and Seglen et al. (Berry & Friend, J. Cell Biol., 1969, Vol. 43, p. 506-520; Seglen et al., Methods in Cell Biol., 1976, Vol. 13, p. 29-83).
Each of the obtained hepatocytes (2×10^3 cells) was cultured in serum-free media for 15 hr, HGF (0, 1 or 3 ng/ml) was added to the media to induce HGF-dependent cell proliferation, and was further cultured. Similarly, cultivation was performed by adding epidermal growth factor (EGF; 0, 1, or 10 ng/ml) in place of HGF to the culture as a control.
After 24 hr from HGF addition, cell numbers were counted using Cell Count Reagent SF (Nacalai tesque) according to the experimental protocol provided with the reagent to calculate the relative cell proliferation rate after HGF (or EGF) addition. Tests were conducted in triplicate.

Compound: N#CC(=C(/N)Sc1ccccc1N)/C(C#N)=C(/N)Sc1ccccc1N [MEK 1/2 inhibitor, U0126, reference compound]
suppression of the enhancement of MERMUC phosphorylation (MERMUC; cells treated with inhibitor 10 μM before HGF stimulation): suppressed only in the cells treated with PI3 kinase inhibitor

binding activity to the HGF receptor c-Met β chain [1]: possessed the binding activity
Compound: C53: MERMUC bait protein, C-terminal 53 amino acids of C260; amino acids 451-503 of SEQ ID NO: 10 (GENGGFLLLRLSVASPEDLTDPRVAERLMQQLHRELHAHAPHFQVSLLRVRRG; listed as Homo sapiens)

binding ability to the protein derived from bait-2 [2]: had binding ability
Compound: clone No. 2-211: prey protein: C-terminal 56 amino acids (amino acids 448-503 of SEQ ID NO: 10) of human MERMUC (VSAGENGGFLLLRLSVASPEDLTDPRVAERLMQQLHRELHAHAPHFQVSLLRVRRG; listed as Homo sapiens)

Compound: HGF: hepatocyte growth factor, ligand of c-Met; in b422 supplied by human HGF expression plasmid (human HGF-cDNA in pcDNA3)
increase of the ratio of liver weight to body weight (liver; MERMUC-Tg mice): about 1.2 times
increase of the ratio of liver weight to body weight (liver; non-Tg mice): about 1.6 times
proliferation due to HGF stimulation of hepatocytes (hepatocytes; MERMUC-Tg derived hepatocytes compared with non-Tg, HGF 0, 1 or 3 ng/ml): significant decrease
phosphorylation of MERMUC upon growth factor stimulation (MERMUC): strong signal band

Compound: EGF: epidermal growth factor, used as control in place of HGF
EGF stimulated hepatocyte proliferation (hepatocytes; MERMUC-Tg and non-Tg hepatocytes, EGF 0, 1 or 10 ng/ml): dosage-dependent cell proliferation
phosphorylation of MERMUC upon growth factor stimulation (MERMUC): did not show effect to increase phosphorylation of MERMUC
